Data published in the supplement of paper PMC10307832.

The cell lines below were run with NCC(=O)Nc1ccc(-n2nc(C(F)(F)F)cc2-c2ccc3c(ccc4ccccc43)c2)cc1 + CS(=O)(=O)N1CCN(Cc2cc3nc(-c4cccc5[nH]ncc45)nc(N4CCOCC4)c3s2)CC1 [Pictilisib] (partner 1 µM) (assay: relative viability (nuclei count vs DMSO), 5 days (fraction); higher = more cells survive). Conditions: first compound 0.02 µM.
In short: (§1)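 Relative viability was taken as the ratio of nuclei in treated wells to nuclei in vehicle wells. Lung cancer cell lines in 1536-well plates received compounds by pin tool one day after seeding, either one drug alone or a fixed anchor-drug dose plus five library-drug doses (not always all listed) in √10 steps. Nuclei were counted on 4× images after 5 days of treatment, and values are medians of duplicate plates.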

| Cell Line | relative viability |
| --- | --- |
| NCI-H520 | 0.351 |
| NCI-H2126 | 0.47 |
| EMC-BAC-2 | 0.509 |
| NCI-H2085 | 0.483 |
| HCC-366 | 0.147 |
| NCI-H1666 | 0.554 |
| NCI-H596 | 0.412 |
| LK-2 | 0.536 |
| NCI-H2087 | 0.77 |
| SK-MES-1 | 0.382 |
| H3255 | 0.553 |
| COR-L23 | 0.712 |
| COR-L 105 | 0.426 |
| LOU-NH91 | 0.497 |
| ChaGo-K-1 | 0.617 |
| NCI-H2170 | 0.233 |

Same assay, conditions: first compound 0.06325 µM

| Cell Line | relative viability |
| --- | --- |
| NCI-H520 | 0.265 |
| NCI-H2126 | 0.51 |
| EMC-BAC-2 | 0.558 |
| NCI-H2085 | 0.443 |
| HCC-366 | 0.205 |
| NCI-H1666 | 0.424 |
| NCI-H596 | 0.458 |
| LK-2 | 0.669 |
| NCI-H2087 | 0.709 |
| SK-MES-1 | 0.313 |
| H3255 | 0.527 |
| COR-L23 | 0.767 |
| COR-L 105 | 0.357 |
| LOU-NH91 | 0.622 |
| ChaGo-K-1 | 0.784 |
| NCI-H2170 | 0.325 |

Same assay, conditions: first compound 0.2 µM

| Cell Line | relative viability |
| --- | --- |
| NCI-H520 | 0.323 |
| NCI-H2126 | 0.45 |
| EMC-BAC-2 | 0.558 |
| NCI-H2085 | 0.436 |
| HCC-366 | 0.174 |
| NCI-H1666 | 0.437 |
| NCI-H596 | 0.425 |
| LK-2 | 0.462 |
| NCI-H2087 | 0.723 |
| SK-MES-1 | 0.334 |
| H3255 | 0.493 |
| COR-L23 | 0.95 |
| COR-L 105 | 0.423 |
| LOU-NH91 | 0.49 |
| ChaGo-K-1 | 0.394 |
| NCI-H2170 | 0.319 |

Same assay, conditions: first compound 0.6325 µM

| Cell Line | relative viability |
| --- | --- |
| NCI-H520 | 0.277 |
| NCI-H2126 | 0.532 |
| EMC-BAC-2 | 0.545 |
| NCI-H2085 | 0.42 |
| HCC-366 | 0.172 |
| NCI-H1666 | 0.505 |
| NCI-H596 | 0.404 |
| LK-2 | 0.577 |
| NCI-H2087 | 0.801 |
| SK-MES-1 | 0.355 |
| H3255 | 0.467 |
| COR-L23 | 0.798 |
| COR-L 105 | 0.363 |
| LOU-NH91 | 0.476 |
| ChaGo-K-1 | 0.676 |
| NCI-H2170 | 0.328 |

Same assay, conditions: first compound 2 µM

| Cell Line | relative viability |
| --- | --- |
| NCI-H520 | 0.277 |
| NCI-H2126 | 0.502 |
| EMC-BAC-2 | 0.506 |
| NCI-H2085 | 0.469 |
| HCC-366 | 0.141 |
| NCI-H1666 | 0.404 |
| NCI-H596 | 0.407 |
| LK-2 | 0.616 |
| NCI-H2087 | 0.848 |
| SK-MES-1 | 0.42 |
| H3255 | 0.513 |
| COR-L23 | 0.613 |
| COR-L 105 | 0.391 |
| LOU-NH91 | 0.537 |
| ChaGo-K-1 | 1.04 |
| NCI-H2170 | 0.323 |

Each cell line was assayed with NCC(=O)Nc1ccc(-n2nc(C(F)(F)F)cc2-c2ccc3c(ccc4ccccc43)c2)cc1 + Nc1ncn([C@H]2C[C@H](O)[C@@H](CO)O2)c(=O)n1 [Decitabine] (partner 2 µM) in the same assay as above. Conditions: first compound 0.02 µM.
In short: as §1

| Cell Line | relative viability |
| --- | --- |
| NCI-H520 | 0.562 |
| NCI-H2126 | 0.568 |
| EMC-BAC-2 | 1.02 |
| NCI-H2085 | 0.577 |
| HCC-366 | 0.353 |
| NCI-H1666 | 0.771 |
| NCI-H596 | 1.13 |
| LK-2 | 0.283 |
| NCI-H2087 | 0.249 |
| SK-MES-1 | 0.386 |
| H3255 | 0.669 |
| COR-L23 | 0.437 |
| COR-L 105 | 0.726 |
| LOU-NH91 | 0.836 |
| ChaGo-K-1 | 0.55 |
| NCI-H2170 | 0.496 |

Same assay, conditions: first compound 0.06325 µM

| Cell Line | relative viability |
| --- | --- |
| NCI-H520 | 0.546 |
| NCI-H2126 | 0.568 |
| EMC-BAC-2 | 0.998 |
| NCI-H2085 | 0.519 |
| HCC-366 | 0.369 |
| NCI-H1666 | 0.567 |
| NCI-H596 | 1.01 |
| LK-2 | 0.268 |
| NCI-H2087 | 0.245 |
| SK-MES-1 | 0.36 |
| H3255 | 0.479 |
| COR-L23 | 0.434 |
| COR-L 105 | 0.588 |
| LOU-NH91 | 0.829 |
| ChaGo-K-1 | 0.526 |
| NCI-H2170 | 0.454 |

Same assay, conditions: first compound 0.2 µM

| Cell Line | relative viability |
| --- | --- |
| NCI-H520 | 0.505 |
| NCI-H2126 | 0.583 |
| EMC-BAC-2 | 1.05 |
| NCI-H2085 | 0.592 |
| HCC-366 | 0.367 |
| NCI-H1666 | 0.778 |
| NCI-H596 | 1.07 |
| LK-2 | 0.249 |
| NCI-H2087 | 0.246 |
| SK-MES-1 | 0.461 |
| H3255 | 0.643 |
| COR-L23 | 0.475 |
| COR-L 105 | 0.698 |
| LOU-NH91 | 0.816 |
| ChaGo-K-1 | 0.506 |
| NCI-H2170 | 0.518 |

Same assay, conditions: first compound 0.6325 µM

| Cell Line | relative viability |
| --- | --- |
| NCI-H520 | 0.449 |
| NCI-H2126 | 0.596 |
| EMC-BAC-2 | 0.948 |
| NCI-H2085 | 0.556 |
| HCC-366 | 0.352 |
| NCI-H1666 | 0.746 |
| NCI-H596 | 0.995 |
| LK-2 | 0.319 |
| NCI-H2087 | 0.282 |
| SK-MES-1 | 0.359 |
| H3255 | 0.715 |
| COR-L23 | 0.413 |
| COR-L 105 | 0.635 |
| LOU-NH91 | 0.849 |
| ChaGo-K-1 | 0.522 |
| NCI-H2170 | 0.446 |
